Test results taken from ChEMBL document CHEMBL5728516, “4,6-substituted-pyrazolo[1,5-a]pyrazines as janus kinase inhibitors” (2021).

Molecular target: Tyrosine-protein kinase JAK2 (Homo sapiens, UniProt O60674)
Assay: JAK2 Inhibition Assay: Compounds of Formula I were screened for their ability to inhibit JAK2 using the general enzyme inhibition assay method, in which the assay mixture contained 1 mM ATP, 10 μM Omnia® Y7 peptide (Catalog # IVGN KNZ3071C, Invitrogen Corporation, Carlsbad, Calif.) and 4 nM JAK2 in a total volume of 25 μL. JAK2 was purchased from Invitrogen Corporation, Carlsbad, Calif. (catalog # IVGN PV4288).

Chain of Tyrosine-protein kinase JAK2 (O60674 whole entry): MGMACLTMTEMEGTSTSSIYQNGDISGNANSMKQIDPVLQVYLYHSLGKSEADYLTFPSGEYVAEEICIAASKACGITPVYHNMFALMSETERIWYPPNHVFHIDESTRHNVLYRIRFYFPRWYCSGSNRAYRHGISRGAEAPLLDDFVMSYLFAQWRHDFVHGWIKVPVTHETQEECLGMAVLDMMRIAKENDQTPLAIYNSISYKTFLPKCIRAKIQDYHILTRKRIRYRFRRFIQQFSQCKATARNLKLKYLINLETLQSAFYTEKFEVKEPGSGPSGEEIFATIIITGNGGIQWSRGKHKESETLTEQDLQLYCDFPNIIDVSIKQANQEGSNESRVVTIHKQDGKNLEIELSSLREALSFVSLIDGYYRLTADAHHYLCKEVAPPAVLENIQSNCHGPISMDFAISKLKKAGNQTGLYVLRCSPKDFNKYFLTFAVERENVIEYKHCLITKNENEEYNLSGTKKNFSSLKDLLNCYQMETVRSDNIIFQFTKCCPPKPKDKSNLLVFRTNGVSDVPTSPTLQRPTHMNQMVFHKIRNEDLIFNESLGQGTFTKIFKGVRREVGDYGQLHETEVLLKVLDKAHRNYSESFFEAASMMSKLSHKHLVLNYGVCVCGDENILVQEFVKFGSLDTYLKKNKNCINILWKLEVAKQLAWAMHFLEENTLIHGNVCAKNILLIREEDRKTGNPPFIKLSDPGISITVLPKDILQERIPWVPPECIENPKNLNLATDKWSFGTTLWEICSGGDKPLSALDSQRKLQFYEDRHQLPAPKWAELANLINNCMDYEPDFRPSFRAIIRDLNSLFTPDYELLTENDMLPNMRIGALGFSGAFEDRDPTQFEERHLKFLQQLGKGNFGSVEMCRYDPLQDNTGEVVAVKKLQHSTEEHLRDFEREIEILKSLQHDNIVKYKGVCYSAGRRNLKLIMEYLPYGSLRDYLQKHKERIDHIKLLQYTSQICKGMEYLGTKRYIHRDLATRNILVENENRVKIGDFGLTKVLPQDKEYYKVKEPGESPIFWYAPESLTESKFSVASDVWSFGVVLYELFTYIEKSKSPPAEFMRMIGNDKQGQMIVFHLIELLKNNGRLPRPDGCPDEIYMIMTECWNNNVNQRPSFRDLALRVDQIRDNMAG

`CCC(CC)n1cc(-c2nc(-c3cnn([C@H]4C[C@](O)(CO)C4)c3)cn3nccc23)cn1` was tested, and the IC50 was < 10 nM.
